Measurements published in US10703741B2, “Covalent inhibitors of PAD4” (Padlock Therapeutics, Inc., priority 2016, dated 2020).
Where two headings read alike, the source gives them in different places.

Key:
hPAD4 enzyme = hPAD4 enzyme (Homo sapiens (Human), UniProt Q9UM07); assay: PAD4 RapidFire Mass Spectrometry (RFMS) activity assay, hPAD4; type: biochemical
mPAD4 = mPAD4 (Mus musculus (Mouse), UniProt Q9Z183); assay: PAD4 RapidFire Mass Spectrometry (RFMS) activity assay, mPAD4; type: biochemical
Chain of mPAD4 (Q9Z183 whole entry): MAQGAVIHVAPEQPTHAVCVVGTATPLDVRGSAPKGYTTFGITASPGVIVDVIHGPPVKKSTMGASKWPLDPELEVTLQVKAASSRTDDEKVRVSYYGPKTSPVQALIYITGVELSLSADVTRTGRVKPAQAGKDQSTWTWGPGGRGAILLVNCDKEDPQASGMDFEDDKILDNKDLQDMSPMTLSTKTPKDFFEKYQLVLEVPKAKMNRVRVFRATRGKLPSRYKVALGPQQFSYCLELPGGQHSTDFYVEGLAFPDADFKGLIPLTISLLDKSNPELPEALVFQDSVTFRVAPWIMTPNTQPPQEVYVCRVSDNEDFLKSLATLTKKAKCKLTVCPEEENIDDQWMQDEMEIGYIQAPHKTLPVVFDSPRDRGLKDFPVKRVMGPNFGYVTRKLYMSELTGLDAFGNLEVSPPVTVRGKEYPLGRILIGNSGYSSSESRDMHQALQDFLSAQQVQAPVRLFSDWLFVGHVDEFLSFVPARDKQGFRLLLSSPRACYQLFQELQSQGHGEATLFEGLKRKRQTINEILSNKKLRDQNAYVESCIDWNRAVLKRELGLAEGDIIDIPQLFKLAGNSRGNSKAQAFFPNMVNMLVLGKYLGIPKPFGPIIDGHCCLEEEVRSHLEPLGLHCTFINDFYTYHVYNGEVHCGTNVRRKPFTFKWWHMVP

[1] = 100 nM hPAD4, 50 μM substrate peptide, 1 mM CaCl2, 65 mins at 37° C., read-out: hPAD4 RFMS IC50
[2] = pIC50=−log(IC50), read-out: hPAD4 RFMS pIC50 (converted)
[3] = pIC50=−log(IC50), read-out: mPAD4 RFMS pIC50 (converted)

Chain of hPAD4 enzyme (Q9UM07 whole entry): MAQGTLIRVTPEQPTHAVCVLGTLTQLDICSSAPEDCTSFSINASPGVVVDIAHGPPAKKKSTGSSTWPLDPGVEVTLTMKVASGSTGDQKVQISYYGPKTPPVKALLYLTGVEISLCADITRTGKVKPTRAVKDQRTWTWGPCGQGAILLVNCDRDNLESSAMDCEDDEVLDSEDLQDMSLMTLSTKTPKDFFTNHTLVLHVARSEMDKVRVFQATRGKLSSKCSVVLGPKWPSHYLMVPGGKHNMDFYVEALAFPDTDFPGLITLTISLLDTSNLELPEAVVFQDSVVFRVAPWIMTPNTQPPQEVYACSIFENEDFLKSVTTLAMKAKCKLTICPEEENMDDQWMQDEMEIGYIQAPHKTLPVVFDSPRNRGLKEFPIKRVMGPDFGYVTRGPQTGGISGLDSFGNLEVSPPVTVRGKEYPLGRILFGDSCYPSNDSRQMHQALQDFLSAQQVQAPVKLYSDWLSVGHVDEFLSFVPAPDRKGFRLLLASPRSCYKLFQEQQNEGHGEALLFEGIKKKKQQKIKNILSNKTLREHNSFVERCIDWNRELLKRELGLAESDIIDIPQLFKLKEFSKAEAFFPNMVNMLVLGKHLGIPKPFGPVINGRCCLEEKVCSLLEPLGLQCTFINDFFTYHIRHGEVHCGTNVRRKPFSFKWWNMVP

IC50 (hPAD4 enzyme; [1]) [µM]	IC50 (hPAD4 enzyme; [2]) [µM]	IC50 (mPAD4; [3]) [µM]	IC50 (mPAD4; read-out: mPAD4 RFMS IC50) [µM]	SMILES
> 10	100 to 100000	10 to 100	> 10	CN(C)C/C=C/C(=O)N[C@H]1CCN(C(=O)c2ccc3c(c2)nc(-c2cc4cccnc4n2CC2CC2)n3C)C[C@H]1N (racemic) [Compound I-3, Cis-rac-(2E)-N-[(3R,4S)-3-amino-1-{2-[1-(cyclopropylmethyl)-1H-pyrrolo[2,3-b]pyridin-2-yl]-1-methyl-1H-1,3-benzodiazole-5-carbonyl}piperidin-4-yl]-4-(dimethylamino)but-2-enamide]
> 10	10 to 100	10 to 100	> 10	CN(C)C/C=C/C(=O)N[C@@H]1C[C@H](N)CN(C(=O)c2ccc3c(c2)nc(-c2cc4cccnc4n2CC2CC2)n3C)C1 (racemic) [Compound I-10, Cis-rac-(2E)-N-[(3R,5S)-5-amino-1-{2-[1-(cyclopropylmethyl)-1H-pyrrolo[2,3-b]pyridin-2-yl]-1-methyl-1H-1,3-benzodiazole-5-carbonyl}piperidin-3-yl]-4-(dimethylamino)but-2-enamide]
> 10	10 to 100			C=CC(=O)O[C@@H]1CNC[C@@H]1NC(=O)c1ccc2c(c1)nc(-c1cc3cccnc3n1CC1CC1)n2C (racemic) [Compound I-11, Rac-(3R,4S)-4-{2-[1-(cyclopropylmethyl)-1H-pyrrolo[2,3-b]pyridin-2-yl]-1-methyl-1H-1,3-benzodiazole-5-amido}pyrrolidin-3-yl prop-2-enoate]
> 10	100 to 100000			C=CC(=O)N(C)[C@@H]1C[C@@H]2CN(C(=O)c3cc(OC)c4c(c3)nc(-c3cc5cccnc5n3CC3CC3)n4C)[C@H]1[C@@H]2N (single isomer, unassigned) [Compound I-16]
> 10	100 to 100000			C=CC(=O)N(C)[C@H]1C[C@@H]2CN(C(=O)c3cc(OC)c4c(c3)nc(-c3cc5cccnc5n3CC3CC3)n4C)[C@H]1[C@@H]2N (single isomer, unassigned) [Compound I-17]
> 10	100 to 100000			C/C=C/C(=O)N[C@@H]1CNC[C@H]1NC(=O)c1ccc2c(c1)nc(-c1cc3cccnc3n1CC1CC1)n2C [Compound I-6]
> 10	100 to 100000			CN(C)C/C=C/C(=O)NCCN(CCc1cnc[nH]1)C(=O)c1ccc2c(c1)nc(-c1cc3cccnc3n1CC1CC1)n2C [Compound I-7, (2E)-N-[2-(1-{2-[1-(Cyclopropylmethyl)-1H-pyrrolo[2,3-b]pyridin-2-yl]-1-methyl-1H-1,3-benzodiazol-5-yl}-N-[2-(1H-imidazol-5-yl)ethyl]formamido)ethyl]-4-(dimethylamino)but-2-enamide]
> 10	10 to 100			CN(C)C/C=C/C(=O)N[C@@H]1CCCN(C(=O)c2ccc3c(c2)nc(-c2cc4cccnc4n2CC2CC2)n3C)C1 [Compound I-12, (2E)-N-[(3R)-1-{2-[1-(cyclopropylmethyl)-1H-pyrrolo[2,3-b]pyridin-2-yl]-1-methyl-1H-1,3-benzodiazole-5-carbonyl}piperidin-3-yl]-4-(dimethylamino)but-2-enamide]
> 10	100 to 100000			C=CC(=O)N[C@@H]1CCCN(C(=O)c2ccc3c(c2)nc(-c2cc4cccnc4n2CC2CC2)n3C)C1 [Compound I-13, N-[(3R)-1-{2-[1-(cyclopropylmethyl)-1H-pyrrolo[2,3-b]pyridin-2-yl]-1-methyl-1H-1,3-benzodiazole-5-carbonyl}piperidin-3-yl]prop-2-enamide]
